System: tender mangoes
Experiment: Preservation of tender mangoes in salt solution, 45 days at room temperature
Conditions: common salt solution 2.5%, optimized nutrient salt solution 5% (matching saltiness), 25 to 35 degree centigrade
Description: Two sets of 1000 gm tender mangoes were put in two separate sterile glass bottles. First bottle was filled with common salt solution up to the neck of the bottle and the second bottle was filled with optimized nutrient salt solution prepared by a process as given in example 1 of matching saltiness. Saltiness of optimized nutrient salt is only half of common salt. While the common salt solution used was 2.5% and the optimized nutrient salt solution was 5%. Bottle closed with cap and kept for seasoning for 45 days in room temperature around 25 to 35 degree centigrade.

`[Cl-].[Na+]` [common salt] was tested, and the “fungal growth at the surface of the solution” value was “thin layer of fungal growth”.

— patent US20220152093A1, “OPTIMIZED NUTRIENT SALT COMPOSITION” (priority 2018, published 2022)
